In US20210087279A1, “REGULATABLE CHIMERIC ANTIGEN RECEPTOR” (Novartis AG, priority 2014, published 2021):

Legend:
Type in all cases: cell-based
[1] = system: reporter under NFAT control in JNL cells; test: Dimerization molecule dose response, single vector construct 143775 in JNL cells, CD19 target; settings: nM to sub-nM doses
Source text: The constructs and viral particles were made and tested essentially as described in Example 11. Viral particles were introduced into JNL cells and evaluated for activity essentially as described in Example 1 except that the target was CD19 (as opposed to EGFRviii).
Construct 143775 was introduced into cells and the affect of dimerization molecule concentration on activation evaluated essentially as described in Example 14.

[2] = system: NFAT activity in Jurkat cells with NFAT-LUC reporter (JNL); test: Activation of RCAR with extracellular FKBP/FRB switch by RAD001; settings: for RAD001 dose at which NFAT activity peaked: 0-50 nM tested
Procedure: In this example, the activation of RCAR with an extracellular switch was evaluated in the presence of the dimerization molecule RAD001. Four RCARs were tested: two half switch constructs, e.g., with the dimerization switch in both orientations (FIG. 34A), and two full switch constructs, e.g., with the dimerization switch in both orientations (FIG. 34B), where the dimerization switch is an extracellular FKBP/FRB dimerization, as depicted in FIGS. 34A and 34B. In the half-switch constructs, the antigen binding member comprises a scFV domain, an extracellular switch domain, a transmembrane domain, an intracellular costimulatory signaling domain 4-1BB, and the intracellular signaling member comprises an extracellular switch domain, a transmembrane domain, and an intracellular primary signaling domain, CD3zeta (FIG. 34A). In the full-switch constructs, the antigen binding member comprises a scFv domain, an extracellular switch domain, and a transmembrane domain, and the intracellular signaling member comprises an extracellular switch domain, a transmembrane domain, an intracellular costimulatory signaling domain, 4-1BB, and an intracellular primary signaling domain, CD3zeta (FIG. 34B).
The RCAR constructs were expressed in a Jurkat reporter cell line. Jurkat cells with NFAT-LUC reporter (JNL) were grown to the density of 0.5×10^6/ml in Jurkat cell growth media with puromycin at 0.5 μg/ml. For each transfection 2.5×10^6 cells were spin down at 100 g for 10 minutes. Two μg of DNA per RCAR construct were used per transfection. Amaxa Nucleofector solution V and supplement I was mixed and 100 μl was added into the tube with DNA construct. The mixture was then added to the cells and transferred to the electroporation cuvette. Electroporation was done under setting X-001 using Amaxa Nucleofector II Device. […]
After one hour, RAD001 compound was applied at various concentrations: 0 nM, 0.01 nM, 0.03 nM, 0.1 nM, 0.3 nM, 1 nM, 5 nM, and 50 nM. […] The samples were incubated for 5 min at 37° C. and then luminescence was measured using Envision plate reader.

[3] = system: NFAT activity in Jurkat cells with NFAT-LUC reporter (JNL); test: Activation of RCAR half switches (intracellular FKBP/FRB) by RAD001; settings: both half switches (CD28 or 4-1BB); 0-10 nM tested
Procedure: In this example, the activation of a RCAR half switch was evaluated in the presence of the dimerization molecule RAD001. Two RCAR constructs were tested where the dimerization switch is an intracellular FKBP/FRB dimerization switch, and the switch domains are located in both orientations with respect to the antigen binding member and the intracellular member. For example, the antigen binding member comprises a scFV domain, a transmembrane domain, an intracellular switch domain, and an intracellular costimulatory signaling domain; and the intracellular signaling member comprises an […] switch domain, a transmembrane domain, and an intracellular primary signaling domain, e.g., CD3zeta (FIG. 36A).
Jurkat cells with NFAT-LUC reporter (JNL) were grown to the density of 0.5×10^6/ml in Jurkat cell growth media with puromycin at 0.5 μg/ml. For each transfection 2.5×10^6 cells were spin down at 100 g for 10 minutes. Two μg of DNA per construct were used per transfection. […]
After one hour, RAD001 compound was delivered at 50 nM when testing RCARs with different costimulatory signaling domains (FIGS. 36A-B), or various concentrations: 0 nM, 0.01 nM, 0.03 nM, 0.1 nM, 0.3 nM, 1 nM, 3 nM, and 10 nM (FIGS. 37A-B). […] The samples were incubated for 5 min at 37° C. and then luminescence is measured using Envision plate reader.

[4] = system: luciferase-expressing Nalm6 (human pre-B ALL) cell line; test: Killing assay with RCAR-expressing primary T cells; settings: effector:target 1:1; 20 hours
Procedure: The ability for RCAR T cells (RCAR T cell generation described above) to target and kill tumor cells was assessed in vitro. A luciferase-based assay was used, with tumor cell lines expressing luciferase reporters. Target cells (tumor cells) were plated at 25,000 cells/well. RCAR T cells, as well as standard CAR-expressing T cells and T cells expressing no CARs were added at the effector:target ratio 1:1 in duplicates. Additionally, RAD001 was added in seven 5-fold dilution steps, starting at 50 nM. One duplicate received pure medium, no RAD001. The cells were cultured for 20 hours, after which the luminescence of each well was detected to determine the percentage of target cells killed (BrightGlo, Promega protocol). Specific killing (%)=[…]. The luciferase-expressing Nalm6 (human pre-B ALL) cell line was used as the target cell.

CO[C@H]1C[C@@H]2CC[C@@H](C)[C@@](O)(O2)C(=O)C(=O)N2CCCC[C@H]2C(=O)O[C@H]([C@H](C)C[C@@H]2CC[C@@H](OCCO)[C@H](OC)C2)CC(=O)[C@H](C)/C=C(\C)[C@@H](O)[C@@H](OC)C(=O)[C@H](C)C[C@H](C)/C=C/C=C/C=C/1C [RAD001, (1R,9S,12S,15R,16E,18R,19R,21R,23S,24E,26E,28E,30S,32S,35R)-1,18-dihydroxy-12-{(1R)-2-[(1S,3R,4R)-4-(2-hydroxyethoxy)-3-methoxycyclohexyl]-1-methylethyl}-19,30-dimethoxy-15,17,21,23,29,35-hexamethyl-11,36-dioxa-4-aza-tricyclo[30.3.1.04,9]hexatriaconta-16,24,26,28-tetraene-2,3,10,14,20-pentaone]
activation [1]: effective at a broad range of concentrations | RAD001 dose at which NFAT activity peaked ([2]; extracellular RCAR full switches): 1 nM | inhibition of NFAT activity at higher dosages ([2]; extracellular half switch 1, 5 nM and 50 nM): no inhibition of activity | RAD001 dose at which NFAT activity peaked ([2]; extracellular half switch 2): 1 nM | RAD001 concentration at which NFAT activity peaked [3]: 1 nM | RAD001 concentration at maximal killing by RCAR-expressing T cells [4]: around 1 nM
